The subject of data set [1] is human monocyte-derived dendritic cells (moDCs). Briefly: IL-1β secretion by human moDCs treated with lipid and R848. Conditions: for hyperactivation of human dendritic cells: 41.25 μM lipid with R848 (Compound 1 also 20.6 μM); for IL-1β secretion / IL-1β secretion, dependence on the NLRP3 inflammasome: human moDCs; for IL-1β secretion, dependence on the NLRP3 inflammasome: R848 + lipid with or without MCC950, one day, FIG. 3B. The format is cell-based. The protocol: (§1) Human monocytes were isolated from Leukopaks purchased from Miltenyi using the StraightFrom Leukopak CD14 microbead kit (Miltenyi). Isolations were completed following manufacturer's instructions. Monocytes were then aliquoted and frozen in fetal bovine serum containing 10% dimethyl sulfoxide. For studies with monocyte-derived dendritic cell (moDC) cultures, monocytes were thawed and cultured in RPMI medium containing 10% FBS, 50 units/mL penicillin, […] streptomycin, 2 mM L-glutamine, 1 mM sodium pyruvate, […] beta-mercaptoethanol, 10 mM HEPES, and Gibco MEM non-essential amino acids (R10 media). To differentiate monocytes into moDCs, recombinant human GM-CSF (50 ng/mL) and IL-4 (25 ng/mL) were added to R10 media. Cells were cultured for 6 days with GM-CSF and IL-4, with an additional cell feeding with R10 containing GM-CSF and IL-4 on day 3.
Six days after differentiation, moDC were collected and counted. Cells were plated into 96-well flat-bottom plates at 1×10^5 cells/well. Cells were treated with or without 1 μg/mL R848 (final) and with or without a hyperactivating lipid (or vehicle control). In some experiments, MCC950, an inhibitor of the NLRP3 inflammasome, was added at a final concentration of 10 uM. In some experiments, nigericin, which causes NLRP3 inflammasome activation and subsequent pyroptosis, was used as a positive control at 20 uM. Cells and stimuli totaled a final volume of […].
Lipid stocks were then further diluted in PBS to treat cells.
After an overnight incubation, cells and culture supernatant were used for downstream readouts. One hundred and fifty microliters of cell supernatant were collected. Viability was measured using the CellTiter-Glo assay (Promega) which measures ATP content from cells. Fifty microliters of CellTiter-Glo reagent were added to 50 μL of cells. Luminescence was quantified on a SpectraMax m5e plate reader using an integration time of 500 milliseconds. Viability data were set relative to control conditions where cells were treated with only R848. To measure IL-1β secretion, the human IL-1β Lumit kit (Promega) was used to assay cell culture supernatant. Culture supernatant samples were incubated with enzyme-linked antibodies in a 384-well plate for 1 hour before addition of luminescent substrate. Samples were measured for luminescence with an integration time of 500 milliseconds. IL-1β concentrations of samples was determined by interpolation from a standard curve using 4-parameter logistic regression analysis. Studies were performed on three different human donor samples, and each biological condition was tested in triplicate. Graphed data represent means from each donor.
as §1, with “Human moDC Production. Human” for “Human”, “(Miltenyi) according to the” for “(Miltenyi). Isolations were completed following”, “To differentiate” for “For studies with”, “pyruvate, and” for “pyruvate,”, “beta-mercaptoethanol” for “beta-mercaptoethanol, 10 mM HEPES, and Gibco MEM non-essential amino acids”
Hyperactivating Lipid Formulation—Compound 10. Lipid stocks were formulated at 200 μg/mL lipid in 5% Kolliphor P407 (KP407) in PBS.

The subject of the next data set is human moDCs. Briefly: IL-6 secretion by human moDCs. It counts as cell-based. Conditions: human moDCs, 41.25 μM lipid with R848, compared with R848 + vehicle; FIG. 16.
For a further data set, the system named is murine FLT3L-DCs. Briefly: Murine bone marrow-derived FLT3L-DCs hyperactivation. The format is cell-based, mice. Conditions: FLT3L DCs; for IL-1β secretion: 1 μg/mL R848 2-3 hours alone or then 41 uM lipid, 48 hours, FIG. 4A; for viability: R848 then 41 uM lipid, FIG. 4B. How it is done: Murine bone marrow-derived FLT3L-DCs generation. Leg femur and tibia were removed from mice, cut with scissors, and flushed into sterile tubes. Bone marrow suspension was treated with ACK for 1 minute, then passed through a 40 um cell strainer. Cells were counted and resuspended in media consisting of complete IMDM containing 10% FBS, penicillin and streptomycin, and supplements of L-glutamine and sodium pyruvate (I10). […] For each experiment, 5 mice are used to collect BM and to generate DCs.
Lipid preparation. […] Lipid stocks were then further diluted in PBS to treat cells.
Murine bone marrow-derived FLT3L-DCs hyperactivation. BMDCs were harvested on day 8 post differentiation, washed with PBS, and re-plated in FLT3L-containing I10 at a concentration of 1×10^5 cells/mL. Cells were primed with or without 1 μg/mL R848 (final) then treated with or without a hyperactivating lipid (or vehicle control). Forty-eight hours post stimulation, supernatants were collected for cytokine measurement. Viability was measured using the CellTiter-Glo assay (Promega) which measures ATP content from cells. Fifty microliters of CellTiter-Glo reagent were added to 50 μL of cells. Luminescence was quantified on a SpectraMax m5e plate reader using an integration time of 500 milliseconds. Viability data were set relative to control conditions where cells were treated with R848. IL-1β and TNFα cytokine were measured using sandwich ELISAs (Invitrogen).

Where [2] appears, read: 41.25 μM lipid with R848, FIG. 17.
[3] abbreviates: 41.3 uM lipid with R848, FIG. 11.
Setting [4] is: 41.3 uM lipid with R848 and MCC950, FIG. 11.
[5] abbreviates: 24 hours, lipid in 4% KP407 with R848, FIG. 2B.
Setting [6] is: 20.6 uM lipid with R848 and 10 uM MCC950, FIG. 14.
[7] abbreviates: 20.6 uM lipid with R848 vs vehicle, FIG. 14.

“Also recorded” adds a separate entry of the source.

As for `CCCCCCCCCCCCCCCCCCCCCCOC[C@H](COP(=O)(O)O)OC(=O)NC` [Compound 6, (R)-1-(docosyloxy)-3-(phosphonooxy)propan-2-yl methylcarbamate], the “hyperactivation of human dendritic cells” value in data set [1] is “did not”. For the same compound, in data set [1] (setting [2]), the IL-1β secretion result was “induced minimal IL-1β secretion”. Moreover, the IL-6 secretion entry in the data set on human moDCs is listed as “IL-6 was secreted at similar levels”.
For `CCCCCCCCCCCCCCCCCCOC[C@H](COP(=O)(O)O)OC(=O)NC` [Compound 13, (R)-1-(octadecyloxy)-3-(phosphonooxy)propan-2-yl methylcarbamate], the “hyperactivation of human dendritic cells” value in data set [1] is on record as “hyperactivating lipids; also recorded: hyperactivated dendritic cells”. Besides, the IL-1β secretion result in data set [1] (setting [2]) is given as “significantly increased IL-1β secretion”.
For `CCCCCCCCCCCCCCCCCCCCCCOC[C@H](CO)OC(=O)NC` [Compound 8, (S)-1-(docosyloxy)-3-hydroxypropan-2-yl methylcarbamate], the “hyperactivation of moDC (IL-1β secretion with maintained viability)” value (from here on “hyperactivation of moDC”) in data set [1] (41.3 uM lipid with R848) is recorded as “hyperactivating lipids”. Besides, the IL-1β secretion result in data set [1] (setting [3]) was “induced secretion of IL-1β”; in data set [1] (setting [4]) it was “significantly reduced”; in data set [1] (setting [5]), “produced significantly more IL-1β”; with murine FLT3L-DCs it was “induced the lowest levels of IL-1β secretion”. In addition, the “IL-1β secretion, dependence on the NLRP3 inflammasome” value (shortened to “IL-1β secretion, dependence”) in data set [1] was “depend on the NLRP3 inflammasome for IL-1β secretion”. Besides, the viability result with murine FLT3L-DCs is “viability was not compromised”.
For “(R)-3-(docosyloxy)-2-((methylcarbamoyl)oxy) propyl (2-(trimethylammonio) ethyl) phosphate [Compound 4]”, the “hyperactivation of human dendritic cells” value in data set [1] is given as “hyperactivating lipids; also recorded: hyperactivated dendritic cells”. The IL-1β secretion entry in data set [1] (setting [2]) is given as “significantly increased IL-1β secretion”.
Consider `CCCCCCCCCCCCCCCCCCCCCCOC[C@@H](O)CO` [Compound 9, (S)-3-(docosyloxy)propane-1,2-diol], for which the IL-1β secretion result in data set [1] (41.25 μM lipid with R848 vs vehicle control, FIG. 8) is given as “produced significantly more IL-1β”; in data set [1] (setting [3]) it was “robustly induced IL-113 secretion”; in data set [1] (setting [5]), “produced significantly more IL-1β”. Moreover, the “IL-1β secretion, dependence” value in data set [1] is reported as “depend on the NLRP3 inflammasome for IL-1β secretion”.
Consider `CCCCCCCCCCCCCCCCCCOC[C@@H](O)CO` [Compound 12, (S)-3-(octadecyloxy)propane-1,2-diol], for which, in data set [1] (20.6 uM lipid with R848), the “hyperactivation of moDC” value is “hyperactivating lipids”. Also, in data set [1], the “hyperactivation of human dendritic cells” value was “hyperactivating lipids; also recorded: hyperactivated dendritic cells”. Also, the results for the IL-1β secretion result in data set [1] (setting [6]), in data set [1] (setting [7]) and in data set [1] (setting [2]) were “inhibited”, “significantly more IL-1β was detected” and “significantly increased IL-1β secretion”, respectively.
Turning to `CCCCCCCCCCCCCCCCCCOC[C@H](CO)OC(=O)NC` [Compound 11, (S)-1-hydroxy-3-(octadecyloxy)propan-2-yl methylcarbamate], the “hyperactivation of moDC” value in data set [1] (20.6 uM lipid with R848) is reported as “hyperactivating lipids”. Also, the “hyperactivation of human dendritic cells” value in data set [1] is given as “hyperactivating lipids; also recorded: hyperactivated dendritic cells”. Also, the IL-1β secretion entry in data set [1] (setting [6]) is listed as “inhibited”; in data set [1] (setting [7]) it was “significantly more IL-1β was detected”; in data set [1] (setting [2]) it was “significantly increased IL-1β secretion”.
`CCCCCCCCCCCCCCCCCCCCCCOC[C@H](CO)OC(N)=O` [Compound 7, (S)-1-(docosyloxy)-3-hydroxypropan-2-yl carbamate]: in data set [1] (41.3 uM lipid with R848), the “hyperactivation of moDC” value was “hyperactivating lipids”. Moreover, the IL-1β secretion entry in data set [1] (setting [3]) was “induced secretion of IL-1β”; in data set [1] (setting [4]), “significantly reduced”; in data set [1] (setting [5]), “produced significantly more IL-1β”; in the data set on murine FLT3L-DCs it was “induced the lowest levels of IL-1β secretion”. In addition, in data set [1], the “IL-1β secretion, dependence” value was “depend on the NLRP3 inflammasome for IL-1β secretion”. The viability entry with murine FLT3L-DCs was “viability was not compromised”.
Take “(R)-2-((dimethylcarbamoyl)oxy)-3-ethoxypropyl (2-(trimethylammonio)ethyl) phosphate-icosane (1/1) [Compound 16]”: the “hyperactivation of human dendritic cells” value in data set [1] is on record as “hyperactivating lipids; also recorded: hyperactivated dendritic cells”. For the same compound, the IL-1β secretion entry in data set [1] (setting [2]) is given as “significantly increased IL-1β secretion”.
On the same counts, the results for `CCCCCCCCCCCCCCCCCCCCCCOC[C@H](CO)OC(=O)N(C)C` [Compound 14, (S)-1-(docosyloxy)-3-hydroxypropan-2-yl dimethylcarbamate] are “did not” and “induced minimal IL-1β secretion”.

For the origin of these results see patent US20260097111A1, “ETHER LIPIDS FOR HYPERACTIVATION OF MAMMALIAN DENDRITIC CELLS” (priority 2022, published 2026).
